Reference: PMC5856640 (ACS chemical biology, 2018)

Target: Mpa (mycobacterial proteasome ATPase) (Mycobacterium tuberculosis, UniProt P9WQN5)
Experiment: […]
Format: binding

Mpa (mycobacterial proteasome ATPase), sequence (P9WQN5 whole entry): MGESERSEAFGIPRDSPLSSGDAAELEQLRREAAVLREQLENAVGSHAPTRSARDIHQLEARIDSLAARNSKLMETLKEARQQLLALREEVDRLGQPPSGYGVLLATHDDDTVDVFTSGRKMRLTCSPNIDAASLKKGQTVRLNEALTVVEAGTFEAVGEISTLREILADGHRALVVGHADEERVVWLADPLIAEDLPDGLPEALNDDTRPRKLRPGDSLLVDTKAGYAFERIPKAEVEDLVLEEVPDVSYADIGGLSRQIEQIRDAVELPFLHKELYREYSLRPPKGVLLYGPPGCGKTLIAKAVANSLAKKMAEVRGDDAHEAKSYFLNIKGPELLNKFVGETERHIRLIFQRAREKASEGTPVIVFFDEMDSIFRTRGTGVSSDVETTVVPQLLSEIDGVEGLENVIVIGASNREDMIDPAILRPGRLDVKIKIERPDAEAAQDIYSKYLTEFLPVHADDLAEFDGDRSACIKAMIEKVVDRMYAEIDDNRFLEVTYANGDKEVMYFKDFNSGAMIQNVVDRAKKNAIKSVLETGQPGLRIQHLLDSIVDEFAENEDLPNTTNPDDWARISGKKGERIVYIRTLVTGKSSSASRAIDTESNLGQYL

c1ccc(N=NN2CCOCC2)cc1 [MTBA, NSC 136065]
Kd: 1 ± 0.1 nM

Cn1cnc2ncnn2c1=S [MTBB, NSC 145180]
Kd: 400 ± 100 nM
